In ChEMBL document CHEMBL2311407, “Design and synthesis of diazatricyclodecane agonists of the G-protein-coupled receptor 119” (J Med Chem, 2013):

Experiment: Apparent intrinsic clearance in human liver microsomes
Assay type: ADME, Microsome
Settings: read-out: CLH(app)

CLint scaled: > 30 mL/min/kg
SMILES: CC[C@@H](C)OC(=O)N1C2CC3CC1CC(C2)N3c1ncnc(Oc2cccnc2C)c1C
